Test results from patent publication US20260091026A1, “METHODS OF TREATING INFLAMMATORY DISEASES” (INTERLINE THERAPEUTICS, INC., priority 2023, published 2026).
Read-outs that look alike come from different tables or passages of the source.

What was measured:
[1] = biological target: T1, GST-RIPK2 fusion protein (human RIPK2 amino acids 1-310) (Homo sapiens, UniProt O43353); assay: RIPK2 binding competition assay (TR-FRET, Tracer 199); conditions: displacement of Tracer 199 (10 nM), 45 min at 22° C.
T1 construct: made in house; host or cells: baculovirus-infected Sf9 cells
Description: The ability of selected compounds of Formulas (I) and (II) to inhibit the binding of an Alexa647-labelled ATP-competitive kinase inhibitor to a GST-RIPK2 fusion protein was quantified employing the TR-FRET-based RIPK2 binding competition assay as described in the following paragraphs.
Recombinant fusion protein of N-terminal Glutathione-S-Transferase (GST) and a fragment of human RIPK2 (amino acids 1-310 of accession number 043353), expressed in baculovirus infected Sf9 cells, purified via glutathione affinity chromatography, was used as GST-RIPK2 fusion protein. Tracer 199 from Life Technologies (catalogue no. PR9115B) was used as Alexa647-labelled ATP-competitive kinase inhibitor.
For the assay, 50 nL of a 100-fold concentrated solution of each test compound in DMSO was pipetted into either a black low volume 384-well microtiter plate or a black 1536-well microtiter plate (both Greiner Bio-One, Frickenhausen, Germany), 3 μL solution of Tracer 199 (16.7 nM=>final concentration in 5 μL assay volume is 10 nM) in aqueous assay buffer (25 mM Tris/HCl pH 7.5, 10 mM magnesium chloride (MgCl2), 5 mM β-glycerophosphate, 2.5 mM dithiothreitol (DTT), 0.5 mM ethylene glycol-bis(2-aminoethylether)-N,N,N′,N′-tetraacetic acid (EGTA), 0.5 mM sodium ortho-vanadate, 0.01% (w/v) bovine serum albumin (BSA), 0.005% (w/v) Pluronic F-127 (Sigma)) were added. Then the binding competition was started by the addition of 2 μL of a solution of the GST-RIPK2 fusion protein (2.5 nM=>final conc. in the 5 μL assay volume is 1 nM) and of Anti-GST-Tb (1.25 nM=>final conc. in the 5 μL assay volume is 0.5 nM), a Lumi4®—Tb cryptate-conjugated anti-GST antibody from PerkinElmer (catalogue no 61GSTTAH), in assay buffer.
The resulting mixture was incubated 45 min at 22° C. to allow the formation of a complex between the Tracer 199, the fusion protein and Anti-GST-Tb. Subsequently, the amount of this complex was evaluated by measurement of the resonance energy transfer from the Tb-cryptate to the Tracer 199. Therefore, the fluorescence emissions at 620 nm and 665 nm after excitation at 337 nm were measured in a TR-FRET reader, e.g. a Pherastar FS(BMG Labtechnologies, Offenburg, Germany) or a Viewlux (PerkinElmer). The ratio of the emissions at 665 nm and at 620 nm was taken as the measure of the amount of the complex. The data were normalized (assay reaction without inhibitor=0% activity, all other assay components but no GST-RIPK2 fusion protein=−100% activity).

[2] = biological target: T2, RIPK2 (KD)/XIAP (BIR2) (Homo sapiens, UniProt O43353); assay: RIPK2-XIAP binding competition PPI assay (TR-FRET); conditions: for Emax / PPI Amax: 50 nM of GSK583 = -100% activity; for Emax: read-out: PPI Amax; for IC50: GST-RIPK2 / His-XIAP (BIR2)-avi, 120 min at 23° C.
T2 construct: made in house; host or cells: baculovirus-infected Sf9 cells
How it was run: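 After 2 h at 23 °C, complex formation was read as the 665/520 nm emission ratio (337 nm excitation), scaled between uninhibited reaction and 50 nM GSK583. The mix held 1 nM human RIPK2 kinase fragment-GST, 25 nM His-tagged XIAP BIR2 and Tb/XL665 antibodies in pH 7.5 Tris buffer containing vanadate and glycerophosphate.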

[3] = test system: THP1-Dual cells, NF-κB pathway (SEAP); assay: THP-1 Dual cell SEAP assay (L18-MDP stimulated); type: cell-based; conditions: 10 ng/mL L18-MDP, 20-24 h, SEAP readout, read-out: IFNγ THP1 IC50
How it was run: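 IC50 values come from non-linear fits of % inhibition of SEAP, measured as QUANTI-Blue optical density (620-655 nm, 2 h) in media-blanked supernatants. These were taken from THP1-Dual cells treated with compound for 30 min before overnight exposure to 10 ng/mL L18-MDP final at 37 °C.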

T2 sequence (O43353 1-310): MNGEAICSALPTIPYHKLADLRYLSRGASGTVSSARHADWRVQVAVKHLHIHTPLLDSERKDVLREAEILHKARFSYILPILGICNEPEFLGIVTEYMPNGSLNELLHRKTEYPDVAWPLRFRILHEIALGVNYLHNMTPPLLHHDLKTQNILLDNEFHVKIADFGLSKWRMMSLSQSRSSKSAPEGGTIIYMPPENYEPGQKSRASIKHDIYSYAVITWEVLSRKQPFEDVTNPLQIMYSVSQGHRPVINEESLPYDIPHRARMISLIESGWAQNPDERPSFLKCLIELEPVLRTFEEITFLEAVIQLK
T1 sequence (O43353 1-310): as above

| Compound | IC50 [1] | Emax [2] | IC50 [2] | IC50 ([3]; Homo sapiens) | PPI Amax [2] | IC50 [3] |
| --- | --- | --- | --- | --- | --- | --- |
| COc1cc2ncc(-n3cc(NC(=O)N4CCCC4c4ccccc4)cn3)n2cc1S(=O)(=O)C(C)(C)C (racemic) [Example 177, N-(1-(6-(tert-butylsulfonyl)-7-methoxyimidazo[1,2-a]pyridin-3-yl)-1H-pyrazol-4-yl)-2-phenylpyrrolidine-1-carboxamide] | > 1000 nM | ≥ 80% | > 1000 nM | > 2500 nM | – | – |
| COc1cc2ncc(-n3cc(N4CCC(c5ccccc5)C4=O)cn3)n2cc1S(=O)(=O)C(C)(C)C (racemic) [Example 180, 1-(1-(6-(tert-butylsulfonyl)-7-methoxyimidazo[1,2-a]pyridin-3-yl)-1H-pyrazol-4-yl)-3-phenylpyrrolidin-2-one] | > 1000 nM | ≥ 80% | > 1000 nM | > 2500 nM | – | – |
| COc1cc2ncc(-n3cc(NC(=O)N4CCCC4c4ccccc4)cn3)n2cc1S(=O)(=O)C(C)(C)C (single isomer, unassigned) [Example 178, (R)- or (S)-N-(1-(6-(tert-butylsulfonyl)-7-methoxyimidazo[1,2-a]pyridin-3-yl)-1H-pyrazol-4-yl)-2-phenylpyrrolidine-1-carboxamide] | > 1000 nM | – | > 1000 nM | > 2500 nM | C (Amax of 55%>C>30) | – |
| COc1cc2ncc(-n3cc(NC(=O)N4CCCC4c4ccccc4)cn3)n2cc1S(=O)(=O)C(C)(C)C (single isomer, unassigned) [Example 179, (S)- or (R)-N-(1-(6-(tert-butylsulfonyl)-7-methoxyimidazo[1,2-a]pyridin-3-yl)-1H-pyrazol-4-yl)-2-phenylpyrrolidine-1-carboxamide] | 500 to 1000 nM | – | > 1000 nM | – | A (Amax of ≥80%) | > 2500 nM |
| COc1cc2ncc(-n3cc(N4CCC(c5ccccc5)C4=O)cn3)n2cc1S(=O)(=O)C(C)(C)C (single isomer, unassigned) [Example 182, (R)- or (S)-1-(1-(6-(tert-butylsulfonyl)-7-methoxyimidazo[1,2-a]pyridin-3-yl)-1H-pyrazol-4-yl)-3-phenylpyrrolidin-2-one] | > 1000 nM | – | > 1000 nM | > 2500 nM | C (Amax of 55%>C>30) | – |
| COc1cc2ncc(-n3cc(N4CCC(c5ccccc5)C4=O)cn3)n2cc1S(=O)(=O)C(C)(C)C (single isomer, unassigned) [Example 183, (S)- or (R)-1-(1-(6-(tert-butylsulfonyl)-7-methoxy-imidazo[1,2-a]pyridin-3-yl)-1H-pyrazol-4-yl)-3-phenylpyrrolidin-2-one] | > 1000 nM | – | > 1000 nM | – | A (Amax of ≥80%) | > 2500 nM |
| COc1cc2ncc(-n3cc(C(=O)NCc4ccccc4)cn3)n2cc1S(=O)(=O)C(C)(C)C [Example 1, N-benzyl-1-(6-(tert-butylsulfonyl)-7-methoxyimidazo[1,2-a]pyridin-3-yl)-1H-pyrazole-4-carboxamide] | 200 to 500 nM | ≥ 80% | 100 to 1000 nM | > 2500 nM | – | – |
| COc1cc2ncc(-n3cc(C(=O)NCc4ccccc4Cl)cn3)n2cc1S(=O)(=O)C(C)(C)C [Example 2, 1-(6-(tert-butylsulfonyl)-7-methoxyimidazo [1,2-a]pyridin-3-yl)-N-(2-chlorobenzyl)-1H-pyrazole-4-carboxamide] | 200 to 500 nM | ≥ 80% | 100 to 1000 nM | > 2500 nM | – | – |
| COc1cc2ncc(-n3cc(C(=O)NCc4c(F)cc(F)cc4F)cn3)n2cc1S(=O)(=O)C(C)(C)C [Example 3, 1-(6-(tert-butylsulfonyl)-7-methoxyimidazo [1,2-a]pyridin-3-yl)-N-(2,4,6-trifluorobenzyl)-1H-pyrazole-4-carboxamide] | > 1000 nM | 30 to 55% | > 1000 nM | > 2500 nM | – | – |
